The results in this text go back to PubChem BioAssay AID248 (DTP/NCI, 2004).

Values joined by “and” are separate entries in the source; they are usually repeats but may differ in a detail not shown here. Identical values can stand only once. Toxic doses and inconclusive results are not listed.

The assay relates to L1210 leukemia ip in BDF1 mice, survival T/C. The assay is described as follows: NCI In Vivo Anticancer Drug Screen. Data for tumor model L1210 Leukemia (intraperitoneal) in B6D2F1 (BDF1) mice. As to conditions: endpoint: mean survival time, higher = longer survival. In short, it runs like this: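 Each compound was tested against a transplantable tumor grown in mice. The endpoint was survival, with treated animals benchmarked against vehicle controls as a simple ratio.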

The mark [1] stands for this setting: dose: 100.0 mg/kg/injection, schedule: Q01DX001 (ip), vehicle: carboxymethylcellulose (CMC).
Setting [2] is: dose: 100.0 mg/kg/injection, schedule: Q01DX001 (ip), vehicle: saline.
Where [3] appears, read: dose: 200.0 mg/kg/injection, schedule: Q01DX001 (ip), vehicle: saline.
[4] abbreviates: dose: 400.0 mg/kg/injection, schedule: Q01DX001 (ip), vehicle: carboxymethylcellulose (CMC).
Where [5] appears, read: dose: 400.0 mg/kg/injection, schedule: Q01DX001 (ip), vehicle: saline.
The mark [6] stands for this setting: dose: 200.0 mg/kg/injection, schedule: Q01DX001 (ip), vehicle: carboxymethylcellulose (CMC).
The mark [7] stands for this setting: dose: 100.0 mg/kg/injection, schedule: Q04DX003 (ip), vehicle: saline.
[8] abbreviates: dose: 200.0 mg/kg/injection, schedule: Q04DX003 (ip), vehicle: saline.
The mark [9] stands for this setting: dose: 400.0 mg/kg/injection, schedule: Q04DX003 (ip), vehicle: saline.

Regarding `CSc1nc(=O)[nH]nc1SCc1ccccc1`, the T/C is, setting by setting: (dose: 22.0 mg/kg/injection, schedule: Q01DX015 (ip), vehicle: carboxymethylcellulose (CMC)) 95 % of control; (dose: 33.0 mg/kg/injection, schedule: Q01DX015 (ip), vehicle: carboxymethylcellulose (CMC)) 95 % of control; (dose: 44.0 mg/kg/injection, schedule: Q01DX001 (ip), vehicle: carboxymethylcellulose (CMC)) 100 % of control and 103 % of control; (dose: 50.0 mg/kg/injection, schedule: Q01DX015 (ip), vehicle: carboxymethylcellulose (CMC)) 92 % of control; (dose: 66.0 mg/kg/injection, schedule: Q01DX001 (ip), vehicle: carboxymethylcellulose (CMC)) 98 % of control and 102 % of control; (dose: 75.0 mg/kg/injection, schedule: Q01DX009 (ip), vehicle: saline) 103 % of control. The T/C (dose: 75.0 mg/kg/injection, schedule: Q01DX015 (ip), vehicle: carboxymethylcellulose (CMC)) was 87 % of control; the T/C under setting [1] was 95 % of control and 97 % of control and 284 % of control; the T/C under setting [2] was 100 % of control; the T/C (dose: 150.0 mg/kg/injection, schedule: Q01DX001 (ip), vehicle: carboxymethylcellulose (CMC)) is 96 % of control and 89 % of control; the T/C (dose: 150.0 mg/kg/injection, schedule: Q01DX009 (ip), vehicle: saline) was 95 % of control; the T/C under setting [3] is 97 % of control. Moreover, the T/C (dose: 300.0 mg/kg/injection, schedule: Q01DX009 (ip), vehicle: saline) is 97 % of control; the T/C under setting [4] was 160 % of control; the T/C under setting [5] was 95 % of control.

For `CC(C)(CCl)c1ccccc1`, the T/C runs as follows: (dose: 100.0 mg/kg/injection, schedule: Q04DX002 (ip), vehicle: saline with Tween-80) 107 % of control; (dose: 200.0 mg/kg/injection, schedule: Q04DX002 (ip), vehicle: saline with Tween-80) 88 % of control; (dose: 400.0 mg/kg/injection, schedule: Q04DX002 (ip), vehicle: saline with Tween-80) 88 % of control.

In the case of `CC(=O)CC(=O)N(c1ccccn1)c1ccccn1`, the T/C under setting [1] was 104 % of control, the T/C under setting [6] was 98 % of control and the T/C under setting [4] is 98 % of control.

As to `O=C1/C(=C\c2ccccc2)C(NC2CCCCC2)c2ccccc21` (stereo not given), the T/C (dose: 3.12 mg/kg/injection, schedule: Q01DX009 (ip), vehicle: Klucel (hydroxypropylcellulose) (HPC)) is 108 % of control; the T/C (dose: 6.25 mg/kg/injection, schedule: Q01DX009 (ip), vehicle: Klucel (hydroxypropylcellulose) (HPC)) was 101 % of control; the T/C (dose: 12.5 mg/kg/injection, schedule: Q01DX009 (ip), vehicle: Klucel (hydroxypropylcellulose) (HPC)) is 95 % of control.

Regarding `CN(C)CCCNCC(=O)Nc1ccc(S(=O)(=O)c2ccc([N+](=O)[O-])cc2)cc1`, the T/C is 104 % of control (dose: 75.0 mg/kg/injection, schedule: Q01DX001 (ip), vehicle: saline) and 104 % of control (dose: 150.0 mg/kg/injection, schedule: Q01DX001 (ip), vehicle: saline).

For `CCOC(=O)c1ccc(N(CCC(=O)CBr)C(C)=O)cc1`, the T/C runs as follows: (dose: 5.0 mg/kg/injection, schedule: Q01DX001 (ip), vehicle: carboxymethylcellulose (CMC)) 97 % of control; (dose: 10.0 mg/kg/injection, schedule: Q01DX001 (ip), vehicle: carboxymethylcellulose (CMC)) 100 % of control; (dose: 20.0 mg/kg/injection, schedule: Q01DX001 (ip), vehicle: carboxymethylcellulose (CMC)) 100 % of control; (dose: 40.0 mg/kg/injection, schedule: Q01DX001 (ip), vehicle: carboxymethylcellulose (CMC)) 97 % of control.

Consider `Cc1cccc(C(=O)NNC(=O)c2cccc(C)c2)c1`, for which the T/C is 106 % of control (dose: 100.0 mg/kg/injection, schedule: Q01DX009 (ip), vehicle: Klucel (hydroxypropylcellulose) (HPC)) and 108 % of control (dose: 200.0 mg/kg/injection, schedule: Q01DX009 (ip), vehicle: Klucel (hydroxypropylcellulose) (HPC)).

On to `COc1ccc(-c2cc(-c3ccccc3)[nH]c(=O)c2N(C)C)cc1`, for which the T/C under setting [1] was 97 % of control, the T/C under setting [6] is 91 % of control and the T/C under setting [4] was 97 % of control.

`Cc1cc(Br)ccc1NC(=O)/C=C/C(=O)O`: the T/C is, setting by setting: (dose: 100.0 mg/kg/injection, schedule: Q04DX002 (ip), vehicle: Klucel (hydroxypropylcellulose) (HPC)) 114 % of control; (dose: 200.0 mg/kg/injection, schedule: Q04DX002 (ip), vehicle: Klucel (hydroxypropylcellulose) (HPC)) 95 % of control; (dose: 400.0 mg/kg/injection, schedule: Q04DX002 (ip), vehicle: Klucel (hydroxypropylcellulose) (HPC)) 100 % of control.

Regarding `C=CC(=O)O`, the T/C is, setting by setting: (dose: 0.5 mg/kg/injection, schedule: Q01DX009 (ip), vehicle: saline) 101 % of control; (dose: 1.0 mg/kg/injection, schedule: Q01DX009 (ip), vehicle: saline) 101 % of control; (dose: 1.56 mg/kg/injection, schedule: Q01DX009 (ip), vehicle: acetone) 104 % of control; (dose: 2.0 mg/kg/injection, schedule: Q01DX009 (ip), vehicle: saline) 108 % of control; (dose: 3.12 mg/kg/injection, schedule: Q01DX009 (ip), vehicle: acetone) 102 % of control; (dose: 4.0 mg/kg/injection, schedule: Q01DX009 (ip), vehicle: saline) 116 % of control. For the same molecule, the T/C reads like this: (dose: 5.0 mg/kg/injection, schedule: Q01DX001 (ip), vehicle: saline) 102 % of control and 93 % of control; (dose: 6.25 mg/kg/injection, schedule: Q01DX009 (ip), vehicle: acetone) 88 % of control; (dose: 10.0 mg/kg/injection, schedule: Q01DX001 (ip), vehicle: saline) 108 % of control and 100 % of control; (dose: 20.0 mg/kg/injection, schedule: Q01DX001 (ip), vehicle: saline) 101 % of control; (dose: 25.0 mg/kg/injection, schedule: Q04DX003 (ip), vehicle: Klucel (hydroxypropylcellulose) (HPC)) 90 % of control; (dose: 50.0 mg/kg/injection, schedule: Q01DX001 (ip), vehicle: carboxymethylcellulose (CMC)) 88 % of control and 106 % of control. For the same molecule, the T/C reads like this: (dose: 50.0 mg/kg/injection, schedule: Q01DX001 (ip), vehicle: saline) 95 % of control; under setting [1], 86 % of control and 95 % of control; under setting [2], 90 % of control and 88 % of control; (dose: 100.0 mg/kg/injection, schedule: Q04DX003 (ip), vehicle: Klucel (hydroxypropylcellulose) (HPC)) 89 % of control; under setting [6], 93 % of control and 101 % of control; under setting [3], 93 % of control and 88 % of control. For the same molecule, the T/C runs as follows: (dose: 200.0 mg/kg/injection, schedule: Q04DX003 (ip), vehicle: saline with Tween-80) 87 % of control; under setting [4], 88 % of control and 106 % of control; under setting [5], 101 % of control and 95 % of control and 102 % of control; (dose: 320.0 micrograms/kg/injection, schedule: Q01DX009 (ip), vehicle: saline) 96 % of control; (dose: 480.0 micrograms/kg/injection, schedule: Q01DX009 (ip), vehicle: saline) 102 % of control; (dose: 730.0 micrograms/kg/injection, schedule: Q01DX009 (ip), vehicle: saline) 106 % of control. Also, the T/C (dose: 1100.0 micrograms/kg/injection, schedule: Q01DX009 (ip), vehicle: saline) was 107 % of control.

Regarding `N#CCCN1CCN(CCC#N)CC1`, the T/C is, setting by setting: under setting [7], 96 % of control; under setting [8], 103 % of control; under setting [9], 100 % of control.

As for `C=Cc1cccc[n+]1[O-]`, the T/C (dose: 100.0 mg/kg/injection, schedule: Q01DX009 (ip), vehicle: saline) is 115 % of control; the T/C (dose: 200.0 mg/kg/injection, schedule: Q01DX009 (ip), vehicle: saline) is 102 % of control; the T/C (dose: 400.0 mg/kg/injection, schedule: Q01DX009 (ip), vehicle: saline) was 102 % of control.

`CCC1CCC2C(CCC3(N(C)C)CCC(OC)C(OC)C23)C1` (stereo not given): the T/C was 98 % of control (dose: 3.13 mg/kg/injection, schedule: Q01DX001 (ip), vehicle: saline with Tween-80); 96 % of control (dose: 6.25 mg/kg/injection, schedule: Q01DX001 (ip), vehicle: saline with Tween-80); 100 % of control (dose: 12.5 mg/kg/injection, schedule: Q01DX001 (ip), vehicle: saline with Tween-80).

For the molecule `O=C1CSCCN1`, the T/C was 101 % of control under setting [7], 101 % of control under setting [8] and 98 % of control under setting [9].
